Experiments:
BCL2 WT = BCL2 WT (Homo sapiens (Human), UniProt P10415); assay: TR-FRET competitive binding assay, BCL2 WT; settings: Ki determined from IC50, read-out: TR_FRET EKI_Bcl2 WT
Procedure, shortened: (§1)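 Competitive TR-FRET displacement of fluorescein-PUMA peptide (2 or 20 nM) from 0.5 nM terbium-labelled N-terminal Halo-fusion BCL2 (1-207, wild type or mutant) or BCLXL (2-196), expressed in E. coli. Buffer 50 mM Hepes pH 7.5, 150 mM NaCl, 5% DMSO; 2 h at 23°C. 520/495 nm ratio fitted over 11 points for IC50, converted to Ki.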

BCL2 G101V [1] = target: BCL2 G101V (Homo sapiens, UniProt P10415, G101V); assay: TR-FRET competitive binding assay, BCL2 G101V; settings: BCL2 G101V; Ki determined from IC50; read-out: TR_FRET EKI_Bcl2 G101V
Procedure, shortened: as §1

BCL2 G101V [2] = assay: TR-FRET competitive binding assay, BCL2 G101V; design: species or system human; settings: ratio Ki BCL2 G101V / Ki BCL2 WT
Procedure, shortened: as §1

BCL2 D103Y = BCL2 D103Y (Homo sapiens, UniProt P10415, D103Y); assay: TR-FRET competitive binding assay, BCL2 D103Y; settings: Ki determined from IC50, read-out: TR_FRET EKI_Bcl2 D103Y
Procedure, shortened: as §1

BCLXL WT = BCLXL WT (Homo sapiens (Human), UniProt Q07817); assay: TR-FRET competitive binding assay, BCLXL WT; settings: for Ki: BCLXL WT, Ki determined from IC50, read-out: TR_FRET EKI BclxL; for TR_FRET EKI BCLxL/WT selectivty ratio: ratio Ki BCLxL / Ki BCL2 WT
Procedure, shortened: as §1

KMS-12-PE Bcl-2 WT = assay: In vitro cytotoxicity CellTiter-Glo 48 h, KMS-12-PE Bcl-2 WT; format: cell-based; settings: Homo sapiens, KMS-12-PE, C50 = concentration needed to reach 50% of the cellular viability
Procedure, shortened: (§2)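 Bcl-2 WT- and G101V-expressing KMS-12-PE cells; 48 h treatment at 37 °C, 5% CO2; CellTiter-Glo ATP luminescence; C50 from 11-point curves.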

KMS-12-PE Bcl-2 G101V = assay: In vitro cytotoxicity CellTiter-Glo 48 h, KMS-12-PE Bcl-2 G101V; format: cell-based; settings: for Ratio (G101V/WT): C50 KMS-12-PE Bcl-2 G101V over C50 KMS-12-PE Bcl-2 WT; for IC50: Homo sapiens, KMS-12-PE, 48 h, CellTiter-Glo, C50 = concentration needed to reach 50% of the cellular viability
Procedure, shortened: as §2

Sequence of BCLXL WT (Q07817 other isoform, or with tags, fused parts or gaps): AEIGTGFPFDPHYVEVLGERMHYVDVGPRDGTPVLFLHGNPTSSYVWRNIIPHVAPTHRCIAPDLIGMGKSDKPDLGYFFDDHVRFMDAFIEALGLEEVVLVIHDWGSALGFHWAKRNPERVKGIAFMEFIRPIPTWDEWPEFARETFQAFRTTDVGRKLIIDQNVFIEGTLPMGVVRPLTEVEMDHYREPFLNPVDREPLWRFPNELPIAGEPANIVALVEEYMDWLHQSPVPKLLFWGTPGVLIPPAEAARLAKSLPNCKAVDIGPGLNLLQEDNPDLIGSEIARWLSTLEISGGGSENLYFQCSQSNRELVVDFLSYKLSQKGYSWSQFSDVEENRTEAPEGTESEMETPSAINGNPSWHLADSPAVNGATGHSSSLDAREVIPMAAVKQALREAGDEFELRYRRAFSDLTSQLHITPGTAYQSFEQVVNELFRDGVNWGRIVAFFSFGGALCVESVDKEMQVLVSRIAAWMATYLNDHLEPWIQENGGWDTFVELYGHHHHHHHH

Structure (SMILES)	Ki (BCL2 WT)	Ki (BCL2 G101V [1])	TR_FRET EKI G101V/WT selectivty ratio (BCL2 G101V [2])	Ki (BCL2 D103Y)	Ki (BCLXL WT)	TR_FRET EKI BCLxL/WT selectivty ratio (BCLXL WT)	IC50 (KMS-12-PE Bcl-2 WT)	Ratio (G101V/WT) (KMS-12-PE Bcl-2 G101V)	IC50 (KMS-12-PE Bcl-2 G101V)
COCCn1cc(N(C(=O)c2cc(-c3cc4c(cc3C(=O)N3Cc5ccccc5C[C@H]3C)CN(C(=O)Cc3ccc(OCCN5CCOCC5)cc3)CC4)n(C)c2C)c2ccc(O)cc2)cn1 [Example 143, N-(4-hydroxyphenyl)-N-[1-(2-methoxyethyl)pyrazol-4-yl]-1,2-dimethyl-5-(7-{[(3R)-3-methyl-3,4-dihydro-1H-isoquinolin-2-yl]carbonyl}-2-(2-{4-[2-(morpholin-4-yl)ethoxy]phenyl}acetyl)-3,4-dihydro-1H-isoquinolin-6-yl)pyrrole-3-carboxamide]	0.04 nM	0.4 nM	12.2	0.1 nM	3 nM	83.3	0.048 µM	12.604	0.605 µM
Cc1c(C(=O)N(c2ccc(O)cc2)c2cnn(CC(C)C)c2)cc(-c2cc3c(cc2C(=O)N2Cc4ccccc4C[C@H]2C)CN(C(=O)Cc2ccc(OCCN4CCOCC4)cc2)CC3)n1C [Example 144, N-(4-hydroxyphenyl)-1,2-dimethyl-5-(7-{[(3R)-3-methyl-3,4-dihydro-1H-isoquinolin-2-yl]carbonyl}-2-(2-{4-[2-(morpholin-4-yl)ethoxy]phenyl}acetyl)-3,4-dihydro-1H-isoquinolin-6-yl)-N-[1-(2-methylpropyl)pyrazol-4-yl]pyrrole-3-carboxamide]	0.1 nM	1.1 nM	11.0	0.18 nM	7.7 nM	77.0	0.0245 µM	12.531	0.307 µM
Cc1c(C(=O)N(c2ccc(O)cc2)c2cnn3c2CCCC3)cc(-c2cc3c(cc2C(=O)N2Cc4ccccc4C[C@H]2C)CN(C(=O)Cc2ccc(OCCN4CCOCC4)cc2)CC3)n1C [Example 147, N-(4-hydroxyphenyl)-1,2-dimethyl-5-(7-{[(3R)-3-methyl-3,4-dihydro-1H-isoquinolin-2-yl]carbonyl}-2-(2-{4-[2-(morpholin-4-yl)ethoxy]phenyl}acetyl)-3,4-dihydro-1H-isoquinolin-6-yl)-N-{4H,5H,6H,7H-pyrazolo[1,5-a]pyridin-3-yl}pyrrole-3-carboxamide]	0.06 nM	0.3 nM	5.9	0.14 nM	1 nM	17.2	0.0304 µM	6.9408	0.211 µM
CCN(C[C@@H]1Cc2ccccc2CN1C(=O)c1cc2c(cc1-c1cc(C(=O)N(c3ccc(O)cc3)c3cc(C#N)n(C)c3C)c(C)n1C)CCN(C(=O)Cc1ccc(OCCN3CCOCC3)cc1F)C2)C(C)C [Example 155, N-(5-cyano-1,2-dimethylpyrrol-3-yl)-5-(7-{[(3S)-3-{[ethyl(isopropyl)amino]methyl}-3,4-dihydro-1H-isoquinolin-2-yl]carbonyl}-2-(2-{2-fluoro-4-[2-(morpholin-4-yl)ethoxy]phenyl}acetyl)-3,4-dihydro-1H-isoquinolin-6-yl)-N-(4-hydroxyphenyl)-1,2-dimethylpyrrole-3-carboxamide]	0.04 nM	0.4 nM	8.8	0.11 nM	1.7 nM	39.5	0.0105 µM	8.0857	0.0849 µM
Cc1c(N(C(=O)c2cc(-c3cc4c(cc3C(=O)N3Cc5ccccc5C[C@H]3CN3CC[C@@H](C)C3)CN(C(=O)Cc3ccc(OCCN5CCOCC5)cc3F)CC4)n(C)c2C)c2ccc(O)cc2)cc(C#N)n1C [Example 156, N-(5-cyano-1,2-dimethylpyrrol-3-yl)-5-[2-(2-{2-fluoro-4-[2-(morpholin-4-yl)ethoxy]phenyl}acetyl)-7-{[(3S)-3-{[(3R)-3-methylpyrrolidin-1-yl]methyl}-3,4-dihydro-1H-isoquinolin-2-yl]carbonyl}-3,4-dihydro-1H-isoquinolin-6-yl]-N-(4-hydroxyphenyl)-1,2-dimethylpyrrole-3-carboxamide]	0.05 nM	0.2 nM	4.0	0.1 nM	2.7 nM	50.9	0.0154 µM	5.2662	0.0811 µM

Second part, led by results:

Ki (BCL2 WT)	Ki (BCL2 G101V [1])	TR_FRET EKI G101V/WT selectivty ratio (BCL2 G101V [2])	Ki (BCL2 D103Y)	Ki (BCLXL WT)	TR_FRET EKI BCLxL/WT selectivty ratio (BCLXL WT)	Structure (SMILES)	IC50 (KMS-12-PE Bcl-2 WT)	Ratio (G101V/WT) (KMS-12-PE Bcl-2 G101V)	IC50 (KMS-12-PE Bcl-2 G101V)
0.1 nM	1.1 nM	11.2	0.23 nM	1.9 nM	19.4	Cc1c(N(C(=O)c2cc(-c3cc4c(cc3C(=O)N3Cc5ccccc5C[C@H]3CN3CCCCC3)CN(C(=O)Cc3ccc(COCC5CCOCC5)cc3)CC4)n(C)c2C)c2ccc(O)cc2)cc(C#N)n1C [Example 149, N-(5-cyano-1,2-dimethyl-1H-pyrrol-3-yl)-N-(4-hydroxyphenyl)-1,2-dimethyl-5-{2-[2-(4-{[(oxan-4-yl)methoxy]methyl}phenyl)acetyl]-7-[(3S)-3-[(piperidin-1-yl)methyl]-1,2,3,4-tetrahydroisoquinoline-2-carbonyl]-1,2,3,4-tetrahydroisoquinolin-6-yl}-1H-pyrrole-3-carboxamide]	0.0239 µM	10.921	0.261 µM
0.04 nM	0.2 nM	6.2	0.08 nM	2.6 nM	70.3	Cc1c(N(C(=O)c2cc(-c3cc4c(cc3C(=O)N3Cc5ccccc5C[C@H]3CN3CCCCC3)CN(C(=O)Cc3ccc(OCCN5CCO[C@@H](C)C5)cc3)CC4)n(C)c2C)c2ccc(O)cc2)cc(C#N)n1C [Example 150, N-(5-cyano-1,2-dimethyl-1H-pyrrol-3-yl)-N-(4-hydroxyphenyl)-1,2-dimethyl-5-[2-(2-{4-[2-((2S)-2-methylmorpholin-4-yl)ethoxy]phenyl}acetyl)-7-[(3S)-3-[(piperidin-1-yl)methyl]-1,2,3,4-tetrahydroisoquinoline-2-carbonyl]-1,2,3,4-tetrahydroisoquinolin-6-yl]-1H-pyrrole-3-carboxamide]	0.011 µM	5.2636	0.0579 µM
0.05 nM	0.3 nM	6.4	0.1 nM	2.7 nM	57.4	Cc1c(N(C(=O)c2cc(-c3cc4c(cc3C(=O)N3Cc5ccccc5C[C@H]3CN3CCCCC3)CN(C(=O)Cc3ccc(OCCN5CCO[C@H](C)C5)cc3)CC4)n(C)c2C)c2ccc(O)cc2)cc(C#N)n1C [Example 151, N-(5-cyano-1,2-dimethyl-1H-pyrrol-3-yl)-N-(4-hydroxyphenyl)-1,2-dimethyl-5-[2-(2-{4-[2-((2R)-2-methylmorpholin-4-yl)ethoxy]phenyl}acetyl)-7-[(3S)-3-[(piperidin-1-yl)methyl]-1,2,3,4-tetrahydroisoquinoline-2-carbonyl]-1,2,3,4-tetrahydroisoquinolin-6-yl]-1H-pyrrole-3-carboxamide]	0.0105 µM	6.0476	0.0635 µM
0.13 nM	0.4 nM	3.5	0.38 nM	5.2 nM	41.6	Cc1c(N(C(=O)c2cc(-c3cc4c(cc3C(=O)N3Cc5ccccc5C[C@H]3CN3CCC[C@H](C)C3)CN(C(=O)Cc3ccc(OCCN5CCOCC5)cc3)CC4)n(C)c2C)c2ccc(O)cc2)cc(C#N)n1C [Example 153, N-(5-cyano-1,2-dimethyl-pyrrol-3-yl)-N-(4-hydroxyphenyl)-1,2-dimethyl-5-[7-[(3S)-3-[[(3S)-3-methyl-1-piperidyl]methyl]-3,4-dihydro-1H-isoquinoline-2-carbonyl]-2-[2-[4-(2-morpholinoethoxy)phenyl]acetyl]-3,4-dihydro-1H-isoquinolin-6-yl]pyrrole-3-carboxamide]	0.0095 µM	5.3741	0.051 µM
0.04 nM	0.3 nM	8.4	0.14 nM	4.1 nM	110.8	Cc1c(N(C(=O)c2cc(-c3cc4c(cc3C(=O)N3Cc5ccccc5C[C@H]3CN3CCCC3)CN(C(=O)Cc3ccc(OCCN5CCN(CC(F)F)CC5)cc3)CC4)n(C)c2C)c2ccc(O)cc2)cc(C#N)n1C [Example 154, N-(5-cyano-1,2-dimethylpyrrol-3-yl)-5-{2-[2-(4-{2-[4-(2,2-difluoroethyl)piperazin-1-yl]ethoxy}phenyl)acetyl]-7-{[(3S)-3-(pyrrolidin-1-ylmethyl)-3,4-dihydro-1H-isoquinolin-2-yl]carbonyl}-3,4-dihydro-1H-isoquinolin-6-yl}-N-(4-hydroxyphenyl)-1,2-dimethylpyrrole-3-carboxamide]	0.067 µM	3.9552	0.265 µM

— US20250179047A1, “5-[7-(3,4-DIHYDRO-1H-ISOQUINOLINE-2-CARBONYL)-1,2,3,4 TETRAHYDROISOQUINOLIN-6-YL]-1H-PYRROLE-3-CARBOXAMIDE DERIVATIVES, PHARMACEUTICAL COMPOSITIONS CONTAINING THEM AND THEIR USES AS PRO-APOPTOTIC AGENTS” (LES LABORATOIRES SERVIER, priority 2022, published 2025)
